The term IC50 denotes the concentration needed to halve the response being measured.

Consider 2 molecules from ChEMBL document CHEMBL5726408, “Compounds for treatment of complement mediated disorders” (2017).

This assay has as its target Complement factor D (Homo sapiens, UniProt P00746). Put plainly: Inhibition Assay: Human factor D (purified from human serum, Complement Technology, Inc.) at 80 nM final concentration is incubated with test compound at various concentrations for 5 minutes at room temperature in 50 mM Tris, 1M NaCl, pH 7.5. A synthetic substrate Z-L-Lys-SBzl and DTNB (Ellman's reagent) are added to final concentrations of 10 μM each. The increase in color is recorded at OD405 nm in a microplate in kinetic mode over 30 minutes with 30 second time points in a […]. IC50 values are calculated by non-linear regression from the percentage of inhibition of complement factor D activity as a function of test compound concentration.

Complement factor D, sequence (P00746 whole entry): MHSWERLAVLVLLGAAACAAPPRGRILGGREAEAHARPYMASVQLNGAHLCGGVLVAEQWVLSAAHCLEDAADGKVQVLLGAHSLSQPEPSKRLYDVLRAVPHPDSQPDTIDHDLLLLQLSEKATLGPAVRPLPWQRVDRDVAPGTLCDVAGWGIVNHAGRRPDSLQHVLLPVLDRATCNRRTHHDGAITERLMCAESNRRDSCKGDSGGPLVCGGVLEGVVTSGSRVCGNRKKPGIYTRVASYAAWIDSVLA

With `NC(=O)c1nn(CC(=O)N2C[C@H](F)C[C@H]2C(=O)Nc2cccc(Br)n2)c2c1C=CC1N=C(c3cccc(Cl)c3)N=C21` (some centres not stated), the concentration for half-maximal inhibition (IC50) was less than 1000 nM.
Under `NC(=O)c1cn(CC(=O)N2C[C@H](F)C[C@H]2C(=O)Nc2cccc(-c3ccccc3Cl)c2F)c2ccsc12` stands less than 1000 nM.
